This test addresses BTK (Homo sapiens, UniProt Q06187). In words: biochemical.
Where [1] appears, read: read-out: BTK inhibition (%), 0.75 uM BTK, […] probe 3l, 15 min preincubation.

79 compounds from paper PMC8041284, “Tunable Methacrylamides for Covalent Ligand Directed Release Chemistry” (Journal of the American Chemical Society, 2021) can be followed below.

Each structure is given as a SMILES string. Read-outs that look alike come from different tables or passages of the source.

BTK, sequence (Q06187 402-655 limits assumed): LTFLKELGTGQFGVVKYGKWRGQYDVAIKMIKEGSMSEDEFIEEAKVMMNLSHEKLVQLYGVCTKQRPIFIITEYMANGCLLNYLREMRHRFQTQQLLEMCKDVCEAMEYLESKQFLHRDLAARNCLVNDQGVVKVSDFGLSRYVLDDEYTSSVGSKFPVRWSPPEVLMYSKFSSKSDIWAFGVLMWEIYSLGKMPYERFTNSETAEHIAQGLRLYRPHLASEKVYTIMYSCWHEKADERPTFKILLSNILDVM

By inhibition is commonly meant the change of the read-out against control, counted positive when it falls. In the case of `O=C1N=C(N2CCOCC2)CN1c1ccc(Cl)cc1` [PCM-0216140], the inhibition at 10 µM under setting [1] is -1.5%.
For the compound `COCC1=C(C(=O)OC(C)OC(=O)OC(C)C)N2C(=O)[C@@H](NC(=O)/C(=N\OC)c3csc(N)n3)[C@H]2SC1` (stereo partly shown) [PCM-0216141], the inhibition at 10 µM under setting [1] was -11.6%.
On to `Clc1ccc2c(N3CCN(CCCN4CCN(c5ccnc6cc(Cl)ccc56)CC4)CC3)ccnc2c1` [PCM-0216142], for which the inhibition at 10 µM under setting [1] is -5.1%.
In the case of `O=C(O)CCCNC(=O)c1cccnc1` [PCM-0216143], the inhibition at 10 µM under setting [1] is -17%.
For `CCN(CC)c1ccc(/C=N/NC(=O)c2ccc(O)cc2)cc1` [PCM-0216144], the inhibition at 10 µM under setting [1] was determined as 0%.
For `CCCCCCCC/C=C\CCCCCCCC(=O)OCC` [PCM-0216145], under setting [1], the inhibition at 10 µM came out at 6.9%.
On the same count and under the same terms, with `Nc1ccn([C@@H]2O[C@H](COP(=O)(O)O)[C@@H](O)[C@H]2O)c(=O)n1` [PCM-0216146] the figure was -0.9%; with `CCCCCCC1CCC(=O)O1` (stereo not shown) [PCM-0216147], 0%; with `CCCCCCCCCC=O` [PCM-0216148], -10%.
Consider `CC12CCC(C1)C(C)(C)C2O` (stereo not shown) [PCM-0216150], for which, under setting [1], the inhibition at 10 µM was -13.9%.
Still for that read-out and setting: with `CCCCCCCCCCCCCCCCCCCCCC(=O)O` [PCM-0216151] the figure was 23.2%.
As to `O=CO` [PCM-0216152], the inhibition at 10 µM under setting [1] is -12.4%.
Same read-out and setting: with `CCCCCCCC/C=C\CCCCCCCCCCCC(=O)O` [PCM-0216153] the figure was -64.9%.
With `CC(C)CCCC(C)CCCC(C)CCCCC(C)CCCC(C)CCCC(C)C` (stereo not shown) [PCM-0216154], the inhibition at 10 µM under setting [1] is 8.5%.
For `C=CC(=C)C` [PCM-0216155], the inhibition at 10 µM under setting [1] came to 1.5%.
Take `CC(C)C12CCC(C)(CC1)O2` [PCM-0216156]: the inhibition at 10 µM under setting [1] turned out to be 23.9%.
In the case of `CCCCCCCCCCCCCCCCCC[N+](C)(C)C` [PCM-0216157], the inhibition at 10 µM under setting [1] was -27%.
On to `Nc1ccc(Cl)cc1C(=O)C(F)(F)F` [PCM-0216158], for which the inhibition at 10 µM under setting [1] was 23.2%.
Consider `O=C(O)C(=O)CBr` [PCM-0216160], for which the inhibition at 10 µM under setting [1] is 6.2%.
For `NC(N)=NCCCC[C@H](N)C(=O)O` [PCM-0216161], under setting [1], the inhibition at 10 µM was -8.5%.
With `ClCCN(Cc1ccccc1)Cc1ccccc1` [PCM-0216162], the inhibition at 10 µM (read-out: BTK inhibition (%)) is -20.1%.
Turning to `Cc1cc(C(=O)O)n[nH]1` [PCM-0216163], the inhibition at 10 µM under setting [1] is -0.8%.
On to `O=S(=O)(Cl)c1ccc(-c2ccccc2)cc1` [PCM-0216165], for which the inhibition at 10 µM under setting [1] was -8.5%.
Regarding `Brc1ccc2[nH]ccc2c1` [PCM-0216166], the inhibition at 10 µM under setting [1] was -11.6%.
Turning to `O=P(O)(O)Oc1cccc2ccccc12` [PCM-0216167], the inhibition at 10 µM (read-out: BTK inhibition (%)) was -4.6%.
With `O=C(O)c1ccc(Br)c(O)c1` [PCM-0216168], under setting [1], the inhibition at 10 µM is -23.9%.
On the same count and under the same terms, with `O=C(Nc1ccc2c(O)cc(S(=O)(=O)O)cc2c1)Nc1ccc2c(O)cc(S(=O)(=O)O)cc2c1` [PCM-0216169] the figure was 29.3%.
In the case of `C[C@H]1O[C@@H](O[C@H]2CC[C@@]3(C)[C@@H](CC[C@]4(C)[C@@H]3C=C[C@]35OC[C@@]6(CCC(C)(C)C[C@H]63)[C@H](O)C[C@]54C)[C@]2(C)CO)[C@H](O)[C@@H](O[C@@H]2O[C@H](CO)[C@@H](O)[C@H](O)[C@H]2O)[C@H]1O` [PCM-0216171], the inhibition at 10 µM under setting [1] was 5.4%.
As to `CC1(C)CC[C@]2(C(=O)O[C@@H]3O[C@H](CO[C@@H]4O[C@H](CO)[C@@H](O)[C@H](O)[C@H]4O)[C@@H](O)[C@H](O)[C@H]3O)CC[C@]3(C)C(=CC[C@@H]4[C@@]5(C)CC[C@H](O[C@@H]6OC[C@H](O)[C@H](O)[C@H]6O)[C@@](C)(CO)[C@@H]5CC[C@]43C)[C@@H]2C1` [PCM-0216172], the inhibition at 10 µM under setting [1] came out at 13.9%.
Consider `COc1cccc(OC)c1C(=O)OCc1cc(O)ccc1O[C@@H]1O[C@H](CO)[C@@H](O)[C@H](O)[C@H]1O` [PCM-0216173], for which the inhibition at 10 µM under setting [1] turned out to be 0%.
On to `C[C@@H]1O[C@@H](O[C@@H]2[C@@H](O)[C@H](OCCc3ccc(O)c(O)c3)O[C@H](CO)[C@H]2OC(=O)/C=C/c2ccc(O)c(O)c2)[C@H](O)[C@H](O)[C@H]1O` [PCM-0216174], for which the inhibition at 10 µM under setting [1] amounted to 15.9%.
On the same count and under the same terms, with `CC(=O)O[C@@H]1C[C@@]23C[C@@]24CC[C@H](O[C@@H]2OC[C@@H](O)[C@H](O)[C@H]2O)C(C)(C)[C@@H]4CC=C3[C@]2(C)C[C@@H]3OC4(C[C@@H](C)[C@@H]3[C@@]12C)OC(O)C1(C)OC41` (stereo partly shown) [PCM-0216175] the figure was -6.2%.
For `CC(C)=CCc1cc2c(cc1O)oc(=O)c1c3ccc(O)cc3oc21` [PCM-0216176], the inhibition at 10 µM under setting [1] stood at 17.2%.
For `COC(=O)C1=CO[C@@H](O[C@@H]2O[C@H](CO)[C@@H](O)[C@H](O)[C@H]2O)[C@@H]2[C@H](C)O[C@@H](O)C[C@H]12` [PCM-0216177], the inhibition at 10 µM under setting [1] was -19.3%.
For `C[C@@H]1O[C@@H](O[C@H]2[C@H](Oc3c(-c4ccc(O)cc4)oc4cc(O)cc(O)c4c3=O)O[C@H](CO)[C@@H](O)[C@@H]2O)[C@H](O)[C@H](O)[C@H]1O` [PCM-0216179], under setting [1], the inhibition at 10 µM is -1.7%.
With `CC(C)=CCc1cc2c(cc1O)O[C@H](c1ccc(O)cc1)CC2=O` [PCM-0216180], the inhibition at 10 µM under setting [1] was 54.1%.
With `O=C(O)C1=CO[C@@H](O[C@@H]2O[C@H](CO)[C@@H](O)[C@H](O)[C@H]2O)[C@H]2[C@@H]1C=C[C@]2(O)CO` [PCM-0216181], under setting [1], the inhibition at 10 µM is -6.9%.
Consider `COc1cc(C=O)c([N+](=O)[O-])cc1OC` [PCM-0216182], for which the inhibition at 10 µM under setting [1] was -13.9%.
`CCOC(=O)C=P(c1ccccc1)(c1ccccc1)c1ccccc1` [PCM-0216183]: under setting [1], the inhibition at 10 µM was -14.7%.
Consider `O=C[C@H](O)[C@@H](O)[C@H](O)[C@H](O)COP(=O)(O)O` [PCM-0216185], for which the inhibition at 10 µM under setting [1] was determined as 13.6%.
Same read-out and setting: as for `Cc1ccc(C(=O)O)c(O)c1` [PCM-0216186], the figure is 10%; as for `CC(=O)c1ccccc1` [PCM-0216190], 3.1%; as for `Cc1ncc([N+](=O)[O-])n1C` [PCM-0216192], -21.4%.
Same read-out and setting: as for `OC1OC[C@@H](O)[C@@H](O)[C@H]1O` (stereo partly shown) [PCM-0216193], the figure is 4.6%; as for `NC(CO)C(=O)O` (stereo not shown) [PCM-0216194], 1.7%.
Take `CCCCCCCC(=O)CCc1ccc(O)c(OC)c1` [PCM-0216195]: the inhibition at 10 µM under setting [1] is -8.3%.
In the case of `Cc1cccc(C)c1N(CC(=O)Nc1ccc(-c2ncon2)cc1)C(=O)C1CCS(=O)(=O)CC1` [PCM-0216196], under setting [1], the inhibition at 10 µM came to 2.3%.
Regarding `CC(=O)O[C@H]1C[C@H](O[C@H]2[C@@H](O)C[C@H](O[C@H]3[C@@H](O)C[C@H](O[C@H]4CC[C@@]5(C)[C@H](CC[C@@H]6[C@@H]5C[C@@H](O)[C@]5(C)[C@@H](C7=CC(=O)OC7)CC[C@]65O)C4)O[C@@H]3C)O[C@@H]2C)O[C@H](C)[C@H]1O[C@@H]1O[C@H](CO)[C@@H](O)[C@H](O)[C@H]1O` [PCM-0216197], the inhibition at 10 µM under setting [1] is -4.6%.
Turning to `COc1ccccc1` [PCM-0216198], the inhibition at 10 µM under setting [1] is -14.7%.
Still for that read-out and setting: with `CCCCCCCCCCCCCCCCCCCC(=O)O` [PCM-0216199] the figure was 9.3%.
Same read-out and setting: with `NC(=O)C[C@H](N)C(=O)O` [PCM-0216200] the figure was 13.6%; with `O=Cc1ccccc1` [PCM-0216202], -2.3%; with `O=c1[nH]c2ccccc2o1` [PCM-0216203], 5.4%.
For `CC(=O)OCc1ccccc1` [PCM-0216204], the inhibition at 10 µM under setting [1] came out at 10.8%.
On the same count and under the same terms, with `NCCCCCN` [PCM-0216205] the figure was 14.7%; with `O=C(O)c1cc(=O)cc(C(=O)O)o1` [PCM-0216206], -6.2%.
Same read-out and setting: as for `CC(=O)OC/C=C/c1ccccc1` [PCM-0216207], the figure is -14.7%.
Still for that read-out and setting: with `CC(C)=CCCC(C)CCO` (stereo not shown) [PCM-0216208] the figure was -7.7%; with `CC(C)=CCCC(C)CC=O` (stereo not shown) [PCM-0216209], 4.6%; with `O=C(O)/C=C/c1cccc(O)c1` [PCM-0216210], -3.1%.
As for `c1ccc2occc2c1` [PCM-0216211], under setting [1], the inhibition at 10 µM stood at 6.2%.
With `CN(CC(=O)O)C(=N)N` [PCM-0216212], under setting [1], the inhibition at 10 µM is -30.6%.
As to `C=C1C2CCC(C2)C1(C)C` (stereo not shown) [PCM-0216213], under setting [1], the inhibition at 10 µM stood at 18.5%.
Same read-out and setting: as for `CC1=CC[C@@H](C(C)(C)O)CC1` [PCM-0216214], the figure is -20.8%; as for `CC1=CCC2C(C1)C2(C)C` (stereo not shown) [PCM-0216215], 8.5%; as for `CC(=O)O[C@@H]1C[C@H](C)CC[C@H]1C(C)C` [PCM-0216217], 13.1%.
On to `Cc1ccc(C(C)C)cc1` [PCM-0216218], for which the inhibition at 10 µM under setting [1] was -20.1%.
`C=C1[C@H]2CC[C@@H]3[C@H]2C(C)(C)CCC[C@]13C` [PCM-0216219]: the inhibition at 10 µM under setting [1] stood at 4.6%.
Regarding `O=C(O)CNC(=O)c1ccccc1` [PCM-0216220], the inhibition at 10 µM under setting [1] amounted to 20.8%.
As to `O=C(O)[C@@H]1CCCN1` [PCM-0216221], under setting [1], the inhibition at 10 µM is -24.7%.
Take `C[C@H](N)C(=O)O` [PCM-0216222]: the inhibition at 10 µM under setting [1] was -4.3%.
Turning to `CSCC[C@H](N)C(=O)O` [PCM-0216223], under setting [1], the inhibition at 10 µM was -0.9%.
The same measure, in the same setting: as for `COC(=O)c1ccco1` [PCM-0216224], the figure is -23.9%; as for `Cc1nc(Nc2ncc(C(=O)Nc3cc(NC(=O)c4cccc(C(F)(F)F)c4)ccc3C)s2)cc(N2CCN(CCO)CC2)n1` [PCM-0216225], 47.9%.
In the case of `COc1cc(CCC(=O)CC(=O)CCc2ccc(O)c(OC)c2)ccc1O` [PCM-0216226], under setting [1], the inhibition at 10 µM is -7%.
On to `O=c1ccc2ccc(O)cc2[nH]1` [PCM-0216227], for which, under setting [1], the inhibition at 10 µM worked out at 7.8%.
Same read-out and setting: as for `CSCC1CN(/N=C/c2ccc([N+](=O)[O-])o2)C(=O)O1` (stereo not shown) [PCM-0216228], the figure is 20.7%.
Regarding `NN1CC(=O)NC1=O` [PCM-0216229], the inhibition at 10 µM under setting [1] is -7.8%.
For the compound `OC[C@H]1O[C@H](OC[C@H]2O[C@H](OC[C@H]3O[C@H](O[C@]4(CO)O[C@H](CO)[C@@H](O)[C@@H]4O)[C@H](O)[C@@H](O)[C@@H]3O)[C@H](O)[C@@H](O)[C@H]2O)[C@H](O)[C@@H](O)[C@H]1O` [PCM-0216230], under setting [1], the inhibition at 10 µM turned out to be 17.8%.
